Experimental data: patent publication US10774053B2, “HIV protease inhibitors” (Gilead Sciences, Inc., priority 2017, dated 2020)

tested on: HIV-1 (IIIB) in MT-4 cells; experiment: microbe, parasite or virus in culture; format: cell-based; conditions: Human immunodeficiency virus 1, IIIB, MT4, MT-4 cells, HIV-1; read-out: MT4 EC50

Row | SMILES | EC50 [µM]
1 | CC(C)(C)C[C@]1(c2ccc(-c3cnn(C4CC4)c3)cc2F)NC(=N)N([C@H](COC(=O)NC2(C(F)(F)F)CC2)c2ccc(Cl)c(-n3ncnc3C(F)F)c2)C1=O [Compound 209] | 0.0147
2 | Cn1ccc(-c2ccc([C@@]3(CC(C)(C)C)NC(=N)N([C@H](COC(=O)NC4(C(F)(F)F)CC4)c4ccc(Cl)c(-n5ncnc5C(F)F)c4)C3=O)c(F)c2)n1 [Compound 210] | 0.00694
3 | CC(C)(C)C[C@]1(c2ccc(-c3cnn(C(F)F)c3)cc2)NC(=N)N([C@H](COC(=O)NC2CC2(F)F)c2ccc(Cl)c(-n3ncnc3C(F)F)c2)C1=O (stereo partly drawn) [Compound 211] | 0.0108
4 | CC(C)(C)C[C@]1(c2ccc(-c3ccn(C4CC4)n3)cc2F)NC(=N)N([C@H](COC(=O)NC2(C(F)(F)F)CC2)c2ccc(Cl)c(-n3ncnc3C(F)F)c2)C1=O [Compound 215] | 0.0185
5 | Cc1cc(-c2ccc([C@@]3(CC(C)(C)C)NC(=N)N([C@H](COC(=O)NC4(C(F)(F)F)CC4)c4ccc(Cl)c(-n5ncnc5C(F)F)c4)C3=O)cc2)on1 [Compound 216] | 0.00974
6 | CC(C)(C)C[C@]1(c2ccc(-c3cnn(C(F)F)c3)cc2)NC(=N)N([C@H](COC(=O)NCC(F)F)c2ccc(Cl)c(-n3ncnc3C(F)F)c2)C1=O [Compound 219] | 0.0088
7 | CC(C)(C)C[C@]1(c2ccc(-c3cnn(C4CC4)c3)cc2)NC(=N)N([C@H](COC(=O)NCC(F)(F)F)c2ccc(Cl)c(-n3ncnc3C(F)F)c2)C1=O [Compound 221] | 0.0155
8 | CC(C)(C)C[C@]1(c2ccc(-c3cnn(C4CC4)n3)c(F)c2)NC(=N)N([C@H](COC(=O)NC2(C(F)(F)F)CC2)c2ccc(Cl)c(-n3ncnc3C(F)F)c2)C1=O [Compound 225] | 0.0174
9 | CC(C)(C)C[C@]1(c2ccc(-n3nccn3)cc2)NC(=N)N([C@H](COC(=O)NC2(C(F)(F)F)CC2)c2ccc(Cl)c(-n3ncnc3C(F)F)c2)C1=O [Compound 226] | 0.0106
10 | CC(C)(C)C[C@]1(c2ccc(-c3cnn(C4CC4)n3)c(F)c2F)NC(=N)N([C@H](COC(=O)NC2(C(F)(F)F)CC2)c2ccc(Cl)c(-n3ncnc3C(F)F)c2)C1=O [Compound 227] | 0.0254
11 | COc1ccc([C@@]2(CC(C)(C)C)NC(=N)N([C@H](COC(=O)NC3(C(F)(F)F)CC3)c3ccc(Cl)c(-n4ncnc4C(F)F)c3)C2=O)c(F)c1F [Compound 228] | 0.0143
12 | CC(C)(C)C[C@]1(c2ccc(-n3cncn3)cc2)NC(=N)N([C@H](COC(=O)NC2(C(F)(F)F)CC2)c2ccc(Cl)c(-n3ncnc3C(F)F)c2)C1=O [Compound 229] | 0.0276
13 | C[C@H](NC(=O)OC[C@H](c1ccc(Cl)c(-n2ncnc2C(F)F)c1)N1C(=N)N[C@](CC(C)(C)C)(c2ccc(-c3cnn(C4CC4)n3)cc2)C1=O)C(F)(F)F [Compound 230] | 0.00762
14 | CC(C)(C[C@]1(c2ccc(-c3cnn(C(F)F)c3)cc2)NC(=N)N([C@H](COC(=O)NC2(C(F)(F)F)CC2)c2ccc(Cl)c(-n3ncnc3C(F)F)c2)C1=O)C1CC1 [Compound 231] | 0.0122
15 | C[C@H](NC(=O)OC[C@H](c1ccc(Cl)c(-n2ncnc2C(F)F)c1)N1C(=N)N[C@](CC(C)(C)C)(c2ccc(-c3cn(C4CC4)nn3)cc2)C1=O)C(F)(F)F [Compound 233] | 0.0136
16 | C[C@H](NC(=O)OC[C@H](c1ccc(Cl)c(-n2ncnc2C(F)F)c1)N1C(=N)N[C@](CC(C)(C)C)(c2ccc(-c3cnn(C4CC4)c3)cc2)C1=O)C(F)(F)F [Compound 234] | 0.00928
17 | CC(C)(C)C[C@]1(c2ccc(-c3cnn(C(F)F)c3)cc2)NC(=N)N([C@H](COC(=O)NC2CC2)c2ccc(Cl)c(-n3cncn3)c2)C1=O [Compound 235] | 0.00961

Row | SMILES | EC50 [µM]
18 | CC(C)(C)C[C@]1(c2ccc(-c3cnn(C(F)F)c3)cc2)NC(=N)N([C@H](COC(=O)NC2(C)CC2)c2ccc(Cl)c(-n3cncn3)c2)C1=O [Compound 237] | 0.00879
19 | Cc1ncn(-c2cc([C@@H](COC(=O)NC3(C)CC3)N3C(=N)N[C@](CC(C)(C)C)(c4ccc(-c5cnn(C(F)F)c5)cc4)C3=O)ccc2Cl)n1 [Compound 238] | 0.156
20 | CC(C)(C)C[C@]1(c2ccc(-c3cnn(C(F)F)c3)cc2)NC(=N)N([C@H](COC(=O)NC2(C)CC2)c2ccc(Cl)c(-n3cnc(C4CC4)n3)c2)C1=O [Compound 239] | 0.604
21 | CC(C)(C)C[C@]1(c2ccc(-c3cnn(C(F)F)c3)cc2)NC(=N)N([C@H](COC(=O)N2CC(F)(F)C2)c2ccc(Cl)c(-n3cncn3)c2)C1=O [Compound 240] | 0.00506
22 | CC(C)(C)C[C@]1(c2ccc(-c3cnn(C(F)F)c3)cc2)NC(=N)N([C@H](COC(=O)NC(C)(C)C)c2ccc(Cl)c(-n3cncn3)c2)C1=O [Compound 241] | 0.00836
23 | CC(C)(C)C[C@]1(c2ccc(-c3cnn(C4CC4)c3)cc2)NC(=N)N([C@H](COC(=O)NC2CC2)c2ccc(Cl)c(-n3cncn3)c2)C1=O [Compound 243] | 0.00911
24 | CC(C)(C)C[C@]1(c2ccc(-c3ncccn3)cc2)NC(=N)N([C@H](CO)c2ccc(Cl)c(-n3cncn3)c2)C1=O [Compound 245] | 0.239
25 | CC(C)(C)C[C@]1(c2ccc(-c3cnn(C(F)F)c3)cc2)NC(=N)N([C@H](CO)c2ccc(Cl)c(-n3cncn3)c2)C1=O [Compound 246] | 0.0843
26 | Cc1ncnn1-c1cc([C@@H](COC(=O)NC2(C)CC2)N2C(=N)N[C@](CC(C)(C)C)(c3ccc(-c4cnn(C(F)F)c4)cc3)C2=O)ccc1Cl [Compound 247] | 0.00751
27 | CC(C)(C)C[C@]1(c2ccc(-c3cnn(C(F)F)c3)cc2)NC(=N)N([C@H](COC(=O)NC23CC(C(F)(F)F)(C2)C3)c2ccc(Cl)c(-n3cncn3)c2)C1=O [Compound 248] | 0.0703
28 | CC(C)(C)C[C@]1(c2ccc(-c3cccc(=O)[nH]3)cc2)NC(=N)N([C@H](COC(=O)NC2(C(F)(F)F)CC2)c2ccc(Cl)c(-n3cncn3)c2)C1=O [Compound 249] | 0.325
29 | CC(C)C[C@]1(c2ccc(-c3cnn(C(F)F)c3)cc2)NC(=N)N([C@H](COC(=O)NC2(C(F)(F)F)CC2)c2ccc(Cl)c(-n3cncn3)c2)C1=O [Compound 250] | 0.0298
30 | CC(C)(C)C[C@]1(c2ccc(-c3cnn(C(F)F)c3)cc2)NC(=N)N([C@H](COC(=O)NC2(C)CC2)c2ccc(OC(F)(F)F)c(-n3cncn3)c2)C1=O [Compound 251] | 0.0857
31 | CC(C)(C)C[C@]1(c2ccc(-c3cnn(C(F)F)c3)cc2)NC(=N)N([C@H](COC(=O)NC2(C)CC2)c2ccc(Cl)c(-n3ncnc3C3CC3)c2)C1=O [Compound 252] | 0.0207
32 | CC(C)(C)C[C@]1(c2ccc(-c3cnn(C(F)F)c3)cc2)NC(=N)N([C@H](COC(=O)NC2(C(F)(F)F)CC2)c2ccc(Cl)c(-n3ncnc3C3CC3)c2)C1=O [Compound 253] | 0.0281
33 | Cc1ncnn1-c1cc([C@@H](COC(=O)NC2(C(F)F)CC2)N2C(=N)N[C@](CC(C)(C)C)(c3ccc(-c4cnn(C(F)F)c4)cc3)C2=O)ccc1Cl [Compound 254] | 0.018
34 | CC(C)(C)C[C@]1(c2ccc(-c3cnn(C(F)F)c3)cc2)NC(=N)N([C@H](COC(=O)NC2(C(F)(F)F)CC2)c2ccc(Cl)c(-n3cccn3)c2)C1=O [Compound 255] | 0.0227

same assay, conditions: MT-4 cells, HIV-1; read-out: MT4 EC50

Row | SMILES | EC50 [µM]
35 | CC(C)(C)C[C@]1(c2ccc(-c3ccnn3C(F)F)cc2)NC(=N)N([C@H](COC(=O)NC2(C(F)(F)F)CC2)c2ccc(Cl)c(-n3ncnc3C(F)F)c2)C1=O [Compound 213] | 0.0255
36 | CC(C)(C)C[C@]1(c2ccc(-c3cn(C4CC4)nn3)cc2)NC(=N)N([C@H](COC(=O)NC2(C(F)(F)F)CC2)c2ccc(Cl)c(-n3ncnc3C(F)F)c2)C1=O [Compound 232] | 0.0182
